According to patent publication US20250108036A1, “COMPOSITIONS FOR REMOVING SENESCENT CELLS AND USES THEREOF” (LIFECEUTIX CO., LTD., priority 2021, published 2025):

What was measured:
Type in all cases: cell-based, human
[1] = tested on: foreskin cells in which senescence was induced by doxorubicin; assay: CellTiter-Glo cell viability of doxorubicin-induced senescent foreskin cells (Examples 1-2, 10, 11, 13; Tables 4, 63, 65); details: Homo sapiens, 72 h, doxorubicin-induced senescent foreskin cells, CellTiter-Glo, 0 μM = 100, read-out: Survival (%); for viability at 1.1 µM: 1.1 μM test compound; for viability at 10 µM: 10 μM test compound; for viability at 30 µM: 30 μM test compound; for viability at […]: […] test compound; for viability at 90 µM: 90 μM test compound; for viability at 270 µM: 270 μM test compound
Protocol: After 3 days, cell viability was measured using CellTiter-Glo Luminescent Cell Viability Assay (Promega) or light microscopy.

HMGN1 [2] = assay: HMGN1 ELISA in culture medium of foreskin cells (Examples 10, 11; Tables 62, 63, 64); details: Homo sapiens, doxorubicin-treated foreskin cells, DMSO = 100; for activity at 30 µM: 30 μM test compound, read-out: HMGN1; for activity at 270 µM: 270 μM test compound; for activity at 90 µM: 90 μM test compound
HMGN1 [3] = assay: HMGN1 ELISA in culture medium of A549 cancer cells (Example 12, Table 66); details: Homo sapiens, A549, doxorubicin-induced senescent A549 cells, ELISA, DMSO = 100, read-out: HMGN1 (amount of HMGN1 secreted in the cell culture); for activity at 30 µM: test compound 30 μM; for activity at 270 µM: test compound 270 μM; for activity at 90 µM: test compound 90 μM
A549 = assay: CellTiter-Glo cell viability of senescent A549 cancer cells (Example 12, Table 67); details: Homo sapiens, A549, doxorubicin-induced senescent A549 cancer cells, CellTiter-Glo, read-out: Survival (%); for viability at 1.1 µM: 1.1 μM test compound; for viability at 10 µM: 10 μM test compound; for viability at 30 µM: 30 μM test compound; for viability at 90 µM: 90 μM test compound; for viability at 270 µM: 270 μM test compound

Structure (SMILES) | viability at 1.1 µM [1] [%] | viability at 10 µM [1] [%] | viability at 30 µM [1] [%] | viability at […] [1] [%] | activity at 30 µM (HMGN1 [2]) [%] | activity at 30 µM (HMGN1 [3]) [%] | viability at 1.1 µM (A549) [%] | viability at 10 µM (A549) [%] | viability at 30 µM (A549) [%] | viability at 90 µM [1] [%] | viability at 270 µM [1] [%] | activity at 270 µM (HMGN1 [2]) [%] | activity at 270 µM (HMGN1 [3]) [%] | viability at 90 µM (A549) [%] | viability at 270 µM (A549) [%] | activity at 90 µM (HMGN1 [2]) [%] | activity at 90 µM (HMGN1 [3]) [%]
COc1cc2nccc(Oc3ccc(NC(=O)NC4CC4)c(Cl)c3)c2cc1C(N)=O [LX-2803, Lenvatinib, reference compound] | 62 | 11.5 | 3.6 | 43.9 | 282 | 195 | 91.2 | 84.9 | 54.4 |  |  |  |  |  |  |  | 
CCCCS(=N)(=O)CCC(N)C(=O)O (stereo not shown) [LX-2805, Buthionine sulfoximine] | 99.4 | 92 | 84.2 | 97.3 |  |  | 105 | 96.7 | 82.9 | 82 | 51.1 | 182 | 158 | 73.3 | 49.3 |  | 
C=CC(=O)Nc1cccc(Oc2nc(Nc3ccc(N4CCN(C)CC4)cc3)nc3ccoc23)c1 [LX-2902, Poseltinib, reference compound] | 1.9 |  |  |  | 297 | 271 | 95.7 | 72.4 | 31.2 |  |  |  |  |  |  |  | 
CN(C)CCCN1c2ccccc2CCc2ccc(Cl)cc21 [LX-3101, Clomipramine, reference compound] | 93.3 | 11.7 |  | 75.8 | 284 | 334 | 89.2 | 7.1 |  |  |  |  |  |  |  |  | 
O=C(NCc1ccncc1)C12CC3CC(C1)CC(c1ccc(Cl)cc1)(C3)C2 [LX-3106, Opaganib, reference compound] | 97.7 | 82.5 | 59.7 | 87.4 |  |  | 108 | 91.7 | 76.8 | 9.8 |  |  |  | 4.7 |  | 254 | 236
C[C@H](N)C(=O)N1C[C@H](CCCB(O)O)[C@](N)(C(=O)O)C1 [LX-3107] | 87.7 | 74.2 | 33.4 | 83.4 | 196 | 267 | 96.5 | 77.8 | 4.4 |  |  |  |  |  |  |  | 
O=C(O)CCCCC(CCSCc1ccccc1)SCc1ccccc1 (stereo not shown) [LX-3109, Devimistat, reference compound] | 97.2 | 88.7 | 74 | 96 |  |  | 108 | 85.7 | 68.2 | 48.7 | 19.7 | 232 | 247 | 43.4 | 0.1 |  | 
CC(=O)N[C@@H](Cc1c[nH]c2ccccc12)C(=O)N[C@@H](CCC(=O)C=[N+]=[N-])C(=O)OC(C)C [LX-3201, Sirpiglenastat, reference compound] | 99.3 | 20.1 |  | 91.9 | 286 | 309 | 96.5 | 68.1 | 12.8 |  |  |  |  |  |  |  | 
Cc1[nH]nc(C(F)(F)F)c1Cc1sc2c(c1C(=O)N1C[C@](C)(O)CO1)c(=O)n(C)c(=O)n2C(C)C [LX-3203] | 107 |  |  | 15.4 | 315 | 293 | 105 | 21.6 |  |  |  |  |  |  |  |  | 
Nc1cccc2c1CN(C1CCC(=O)NC1=O)C2=O (stereo not shown) [LX-3207, Lenalidomide, reference compound] | 99.3 | 56.4 | 17.9 | 91.9 | 219 | 222 | 101 | 76.4 | 18.9 |  |  |  |  |  |  |  | 
C=CC(=O)N1CCC[C@@H](n2nc(-c3ccc(Oc4ccccc4)cc3)c3c(N)ncnc32)C1 [LX-3209, Ibrutinib, reference compound] | 105 | 2 |  | 52.8 | 274 | 199 | 95.4 | 55.7 | 2.2 |  |  |  |  |  |  |  | 
Cc1ccc(Nc2nccc(N(C)c3ccc4c(C)n(C)nc4c3)n2)cc1S(N)(=O)=O [LX-3301, Pazopanib, reference compound] | 100 | 67.4 | 39.5 | 99.2 |  |  | 100 | 85.9 | 51.9 | 2.7 |  |  |  | 4.2 |  | 228 | 229
COc1cc2c(Nc3ccc(Br)cc3F)ncnc2cc1OCC1CCN(C)CC1 [LX-3302, Vandetanib, reference compound] | 99.3 | 6.7 |  | 51.9 | 268 | 232 | 99.5 | 67.9 | 16.4 |  |  |  |  |  |  |  | 
CCc1nc(C(N)=O)c(Nc2ccc(N3CCC(N4CCN(C)CC4)CC3)c(OC)c2)nc1NC1CCOCC1 [LX-3303, Gilteritinib, reference compound] | 83.9 | 13.9 |  | 69.4 | 275 | 239 | 101 | 53.8 | 11.7 |  |  |  |  |  |  |  | 
CO[C@@H]1[C@H](N(C)C(=O)c2ccccc2)C[C@H]2O[C@]1(C)n1c3ccccc3c3c4c(c5c6ccccc6n2c5c31)C(=O)NC4 [LX-3307, Midostaurin, reference compound] | 108 | 32.7 |  | 96.1 | 288 | 295 | 99.8 | 51.9 | 20 |  |  |  |  |  |  |  | 
C=CC(=O)N1CCC([C@@H]2CCNc3c(C(N)=O)c(-c4ccc(Oc5ccccc5)cc4)nn32)CC1 [LX-3309, Zanubrutinib, reference compound] | 99.3 | 36.9 |  | 87.1 | 293 | 247 | 104 | 49.6 | 35.2 |  |  |  |  |  |  |  | 
